Series [1] has as its system MCF-7 human breast cancer cell line. The series is described as follows: 50% inhibitory concentration of antitumor agents, living cell count with trypan blue. It counts as cell-based. Conditions: MCF7, 48 h, read-out: 50% inhibitory concentration of antitumor agents against MCF-7.
Procedure: The cell line was prepared to 1×10^5 cells/ml and then cultured on a 6-well plate under conditions of 37° C. and 5% CO2 for one day. Then, the cell was treated with each antitumor agent at final concentrations of 0.001 μM, 0.01 μM, 0.1 μM, 1.0 μM, and 10 μM, followed by 2-days culture under conditions of 37° C. and 5% CO2. After removal of the culture medium, the cell was washed twice with PBS(−), to which 0.25% Trypsin-EDTA was then added in order to detach the cell from the plate. The thus detached cell was suspended with PBS(−) to a volume of 100 to which 10 μl of 0.4% trypan blue stock solution was then added, and the mixture was measured for counts of living cells using a hemocytometer. The rate of living cells in case that the cell was treated with each antitumor agent (i.e., a chemotherapeutic) was calculated, wherein the number of living cells in case that the cell was not treated with each antitumor agent was designated at 100%. 50% inhibitory concentration was roughly estimated based on the obtained values, and each antitumor agent was prepared to have a concentration around the determined 50% inhibitory concentration, and thereafter procedures similar to the above were further performed in order to calculate a more specific 50% inhibitory concentration.
MCF-7 cell line was prepared to 1×10^5 cells/mL, and then cultured on a 6-well plate under conditions of 37° C. and 5% CO2 for one day. […] After removal of the culture medium, the cell was washed with PBS(−) twice, to which 0.25% Trypsin-EDTA was added in order to detach the cell from the plate. The detached cell was suspended in PBS(−) to a volume of 100 μl, to which 10 μl of 0.4% trypan blue stock solution was further added. The mixture was measured for counts of living cells using a hemocytometer. […] The IC50 values of respective antitumor agents in each type of cancer cells were calculated by using the same procedures.
Series [2] has as its system human breast cancer cell line MDA-MB-157. The series is described as follows: ADCC activity, chromium-51 release. Format: cell-based. Conditions: 1 μg antibody, mouse lymphocytes 2×10^5 cells, 10^3 target cells, 4 hours. The protocol: The above-selected anti-CAPRIN-1 monoclonal antibodies #1 to #11 were evaluated for their cytotoxic activities against cancer cells (ADCC activity). Hybridomas producing the monoclonal antibodies #1 to #11 were each cultured using hybridoma SFM medium (Invitrogen). The thus obtained supernatant was purified using Hitrap ProteinA Sepharose FF (GE HealthCare), replaced with PBS(−), and then filtered through 0.22 μm filter (Millipore). The obtained filtrates were used as antibodies for assay. The human breast cancer cell line MDA-MB-157 (10^6 cells) was collected in a 50-ml centrifuge tube, to which 100 μCi chromium(Cr)-51 was then added, and incubated at 37° C. for 2 hours. Subsequently, the cells were washed 3 times with RPMI1640 medium containing 10% FBS, and then dispensed into each well of a 96-well V-bottom plate at 10^3 cells per well. The thus obtained cells are used as target cell. The above purified antibodies (1 μg each) were added to the cells. Separately, mouse lymphocytes separated from the mouse spleen were further added (2×10^5 cells) and then cultured under conditions of 37° C. and 5% CO2 for 4 hours. After culture, the amount of chromium(Cr)-51 released from cytotoxically impaired tumor cells in a culture supernatant was measured, so that the ADCC activity of each anti-CAPRIN-1 antibody against cancer cells was calculated. […] On the other hand, similar procedures were performed using the monoclonal antibodies (which were prepared in Example 2) reactive with the CAPRIN-1 protein itself, but not reactive with the surface of cancer cells, no cytotoxic activity was observed (see FIG. 1). […] Similarly, the anti-CAPRIN-1 antibodies were examined for ADCC activity against other human cancer cell lines including glioma cell lines (T98G and U373), lung cancer cell lines (A549 and QG56), renal cancer cell lines (Caki-1 and ACHN), a uterine cervix cancer cell line (SW756), a bladder cancer cell line (T24), an esophageal cancer cell line (KYSE180), gastric cancer cell lines (MNK28 and MNK45), a colorectal cancer cell line (SW480), a leukemia cell line (AML5), and a lymphoma cell line (Ramos).

Series [3] concerns MCF-7 human breast cancer cell line. The series is described as follows: In vivo combination therapy in tumor-bearing nude mice transplanted with MCF-7. The note with it: experimental section 1 (anti-CAPRIN-1 antibody = #2, 5 mg/kg i.p.), day 26, mouse PBMC given to all groups. The protocol:
IgG2b (R&D systems, catalog No. MAB11291)) were administered in combination, a group to which an antitumor agent and anti-CAPRIN-1 monoclonal antibody were administered in combination, and a group to which control (PBS(−) was administered. In addition, mouse PBMC was administered to all the administration groups. […] PBMC separated from Balb/c mouse spleen was intravenously administered to each mouse at 1×10^7 cells/0.2 mL (RPMI1640) on days 0, 8, and 15 after the start of the experiment. […] PBMC separated from Balb/c mouse spleen was intravenously administered to each mouse at 1×10^7 cells/0.2 mL (RPMI1640) on days 0, 8, and 15 after the start of the experiment. Paclitaxel was intraperitoneally administered to each of 5 tumor-bearing mice at 15 mg/kg/shot on days 0 and 3 after the start of the experiment. PBMC separated from Balb/c mouse spleen was intravenously administered to each mouse at 1×10^7 cells/0.2 mL (RPMI1640) on days 0, 8, and 15 after the start of the experiment. Docetaxel was intraperitoneally administered to each of 5 tumor-bearing mice at 10 mg/kg/shot on days 0 and 3 after the start of the experiment. PBMC separated from Balb/c mouse spleen was intravenously administered to each mouse at 1×10^7 cells/0.2 mL (RPMI1640) on days 0, 8, and 15 after the start of the experiment. […]

The mark [4] stands for this setting: MCF-7, 2-days culture with agent, living cells counted with trypan blue.

Read-outs that look alike come from different tables or passages of the source.

From patent US9180187B2, “Medicament for treating and/or preventing cancer” (TORAY INDUSTRIES, INC., priority 2010, dated 2015) come the findings set out here.

Regarding `O=P1(N(CCCl)CCCl)NCCCO1` (centres unmarked) [Cyclophosphamide, cyclophosphamide], in series [1], the IC50 was determined as 30 nM.

For the molecule `CC(=O)O[C@@]12CO[C@@H]1C[C@H](O)[C@@]1(C)C(=O)[C@H](O)C3=C(C)[C@@H](OC(=O)[C@H](O)[C@@H](NC(=O)OC(C)(C)C)c4ccccc4)C[C@@](O)([C@@H](OC(=O)c4ccccc4)[C@H]21)C3(C)C` [Docetaxel, docetaxel], in series [1] (setting [4]), the IC50 is 0.1 nM.

As for `CC(=O)O[C@H]1C(=O)[C@@]2(C)[C@H]([C@H](OC(=O)c3ccccc3)[C@]3(O)C[C@H](OC(=O)[C@H](O)[C@@H](NC(=O)c4ccccc4)c4ccccc4)C(C)=C1C3(C)C)[C@]1(OC(C)=O)CO[C@@H]1C[C@@H]2O` [Paclitaxel, paclitaxel], the IC50 in series [1] (setting [4]) came to 10 nM.

For the molecule `CCC1=C[C@@H]2CN(C1)Cc1c([nH]c3ccccc13)[C@@](C(=O)OC)(c1cc3c(cc1OC)N(C)[C@H]1[C@@](O)(C(=O)OC)[C@H](OC(C)=O)[C@]4(CC)C=CCN5CC[C@]31[C@@H]54)C2` [Vinorelbine, vinorelbine], in series [1] (setting [4]), the IC50 was found to be 20 nM.

B1: monoclonal antibody #1: mouse anti-CAPRIN-1 monoclonal antibody; heavy chain variable region SEQ ID NO: 43, light chain variable region SEQ ID NO: 47 (antibody, listed as Mus musculus, V domains shown)
VH: MEWSGVFIFLLSGTAGVLSEVQLHQFGAELVKPGASVKISCKASGYTFTDYNMDWVKQSHGKSLEWIGDINPNYDSTSYNQKFKGKATLTVDKSSSTAYMELRSLTSEDTAVYYCARSRSYDYEGFAYWGQGTLVTVSAAKTTPPSVY
VL: MSVLTQVLGLLLLWLTGARCDIQMTQSPASLSASVGETVTITCRASGNIHNYLAWYQQKQGKSPQLLVYNAKTLADGVPSRFSGSGSGTQYSLKINSLQPEDFGSYYCQHFWSTLTFGAGTKLELKRADAAPTVSNPYD
As for B1, the “ADCC activity (cytotoxic activity) against MDA-MB-157” value (“ADCC activity (cytotoxic activity)” below) in series [2] came out at 22.1%.

B2: monoclonal antibody #2: mouse anti-CAPRIN-1 monoclonal antibody; heavy chain variable region SEQ ID NO: 43, light chain variable region SEQ ID NO: 53 (antibody, listed as Mus musculus, V domains shown)
VH: B1 VH
VL: AVLRCSRGLLVIWISDIQLTQSPSSLAVTAGEKVTMSCKSSQSLLWSVNQKNYLSWYQQKQRQPPKLLIYGASIRESWVPDRFTGSGSGTDFTLTISNVHAEDLAVYYCQHNHGSFLPSRSEQVPSWRSNNR
As for B2, the “ADCC activity (cytotoxic activity)” value in series [2] came to 29.1%. In addition, the “tumor volume relative to PBS(−) control group designated at 100%” value in series [3] is “about 56%”.

B3: monoclonal antibody #6: mouse anti-CAPRIN-1 monoclonal antibody; heavy chain variable region SEQ ID NO: 73, light chain variable region SEQ ID NO: 77 (antibody, listed as Mus musculus, V domains shown)
VH: DILQASGYSFTGYTMNWVKQSHGKNLEWIGLINPYNGGTSYNQKFKGKATLTVDKSSSTAYMELLSLTSEDSAVYYCARWGVWSAMDYWGQGTTVTVSSK
VL: DRVSITCKASQNVRTAVAWYQQKPRQSPKALIYLASNRDTGLPDRFPGRGSGTDFTLNITNVQSEDLEDYFCLQHCNYPNEFRGCTKVPI
On to B3, for which the “ADCC activity (cytotoxic activity)” value in series [2] turned out to be 30.2%.
